We go through 1 compound from patent publication US8969413B2.

SMILES strings stand for the structures. pIC50: −log10 of the molar value. A value given as a limit tells only on which side of the number the result lay.

A word on the pIC50: it is the negative decadic logarithm of the IC50, by convention in mol/L.

Data set [1] has as its target T1, hGAT-2 (Homo sapiens, UniProt Q9NSD5).
T1 construct: expressed in transfected cells; host or cells: tsA201 cells, transient (PolyFect)
Kind of data set: [3H]GABA uptake at human GABA transporters, tsA201 cells. The format is cell-based. The protocol:
(§1) tsA201 cells were cultured in GlutaMAX-I DMEM supplemented with 10% fetal bovine serum, penicillin (100 U/ml), and streptomycin (100 μg/ml) at 37° C. in a humidified atmosphere of 95% air and 5% CO2. […] J. Biol. Chem. 2007, 282, 19331-19341. […] Quantification was performed by using Microscint™ 20 scintillation fluid (PerkinElmer) and a Packard TopCount microplate scintillation counter.

In data set [2] the target is T2, hBGT-1 (Homo sapiens, UniProt P48065).
T2 construct: expressed in transfected cells; host or cells: tsA201 cells, transient (PolyFect)
T2 sequence (P48065 whole entry): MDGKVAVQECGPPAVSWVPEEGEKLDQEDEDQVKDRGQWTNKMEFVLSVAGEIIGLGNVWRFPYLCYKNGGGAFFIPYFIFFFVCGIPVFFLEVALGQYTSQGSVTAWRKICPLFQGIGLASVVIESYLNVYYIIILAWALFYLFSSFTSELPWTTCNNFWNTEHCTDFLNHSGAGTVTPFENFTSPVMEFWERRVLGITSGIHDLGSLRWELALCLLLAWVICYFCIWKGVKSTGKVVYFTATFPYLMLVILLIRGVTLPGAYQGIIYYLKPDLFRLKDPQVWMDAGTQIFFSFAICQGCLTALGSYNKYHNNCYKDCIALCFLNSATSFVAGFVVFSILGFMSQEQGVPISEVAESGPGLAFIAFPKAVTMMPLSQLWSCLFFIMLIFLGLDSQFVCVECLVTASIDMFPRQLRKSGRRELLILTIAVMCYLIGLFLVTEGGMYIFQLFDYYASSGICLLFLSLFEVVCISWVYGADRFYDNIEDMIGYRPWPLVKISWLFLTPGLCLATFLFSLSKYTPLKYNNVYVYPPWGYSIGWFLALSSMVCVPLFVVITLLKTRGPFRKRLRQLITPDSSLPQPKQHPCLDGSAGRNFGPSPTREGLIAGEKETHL
The description is as above. The class given is cell-based. The protocol: as §1

Data set [3] has as its target T3, hGAT-1 (Homo sapiens, UniProt P30531).
T3 construct: expressed in transfected cells; host or cells: tsA201 cells, transient (PolyFect)
The data set is described as above. The format is cell-based. The protocol: as §1

Data set [4] concerns the target T4, hGAT-3 (Homo sapiens, UniProt P48066).
T4 construct: expressed in transfected cells; host or cells: tsA201 cells, transient (PolyFect)
The data set is described as above. The class given is cell-based. Here is the method:
as §1

Data set [5] deals with Rat. Kind of data set: subcutaneous Metrazol seizure threshold test (scMET). As to conditions: 7 days IP, 20 mg/kg dose only, Metrazol 70 mg/kg. The format is in vivo. The protocol: Subcutaneous injection of the convulsant Metrazol produces clonic seizures in laboratory animals. […] Animals are pretreated with various doses of the test compound given by i.p. injection. At the previously determined TPE of the test compound, the dose of Metrazol which will induce convulsions in 97% of animals (CD97; 85 mg/kg mice) is injected into a loose fold of skin in the midline of the neck. The animals are placed in isolation cages to minimize stress (Swinyard et al, 1961) and observed for the next 30 minutes for the presence or absence of a seizure. An episode of clonic spasms, approximately 3-5 seconds, of the fore and/or hindlimbs, jaws, or vibrissae is taken as the endpoint.

Data set [6] relates to cortical neurons. The experiment in a line: [3H]GABA uptake in cultured cortical neurons. The class given is cell-based. As to conditions: Mus musculus, Cortical neurone; read-out: neuron uptake IC50. The protocol: (§2) Cortical neurons were cultured essentially as previously described by removing the neopallium of 15-day old NMRI embryos by dissection followed by mild trypsination. Hertz E, Yu A C H, Hertz L, Juurlink B H J and Schousboe A. Preparation of Primary Cultures of Mouse Cortical Neurons, in A Dissection and Tissue Culture Manual of the Nervous System (Shahar A, de Vellis J, Vernadakis A and Haber B eds) pp 183-186, Alan R. Liss, Inc., New York, 198. The neurons were cultured in 10% fetal calf serum and, after 48 h, cytosine arabinoside was added to a final concentration of 20 μM to prevent glial proliferation. Four cultures of stably transfected Human Embryonic Kidney (HEK)-293 cells expressing mGAT1-4 were prepared by the method previously reported. […] J Pharmacol Exp Ther. 2002, 302, 636-644 The stable cell lines are under the selection pressure of blasticidin-S at 5 μg/mL. Determinations of the IC50 values were conducted as described earlier. […] Radioactivity was measured using Microscint™ 20 scintillation fluid (PerkinElmer) and a Packard TopCount microplate scintillation counter.

Data set [7] addresses GABAB receptor (Rattus norvegicus, UniProt Q9Z0U4). The experiment in a line: biochemical.
In data set [8] the target is T5, mGAT1 (Mus musculus, UniProt P31648).
T5 construct: expressed in transfected cells
Kind of data set: [3H]GABA uptake at mouse GABA transporters, HEK-293 cells. The format is cell-based. Here is the method:
as §2

Data set [9] deals with T6, mGAT3 (Mus musculus, UniProt P31649).
T6 construct: expressed in transfected cells
The description is as above. The format is cell-based. Here is the method:
as §2

Data set [10] concerns the target T7, mGAT4 (Mus musculus, UniProt P31650).
T7 construct: expressed in transfected cells
Described as above. The class given is cell-based. The protocol: as §2

The target of data set [11] is T8, mGAT2 (Mus musculus, UniProt P31651).
T8 construct: expressed in transfected cells
T8 sequence (P31651 whole entry): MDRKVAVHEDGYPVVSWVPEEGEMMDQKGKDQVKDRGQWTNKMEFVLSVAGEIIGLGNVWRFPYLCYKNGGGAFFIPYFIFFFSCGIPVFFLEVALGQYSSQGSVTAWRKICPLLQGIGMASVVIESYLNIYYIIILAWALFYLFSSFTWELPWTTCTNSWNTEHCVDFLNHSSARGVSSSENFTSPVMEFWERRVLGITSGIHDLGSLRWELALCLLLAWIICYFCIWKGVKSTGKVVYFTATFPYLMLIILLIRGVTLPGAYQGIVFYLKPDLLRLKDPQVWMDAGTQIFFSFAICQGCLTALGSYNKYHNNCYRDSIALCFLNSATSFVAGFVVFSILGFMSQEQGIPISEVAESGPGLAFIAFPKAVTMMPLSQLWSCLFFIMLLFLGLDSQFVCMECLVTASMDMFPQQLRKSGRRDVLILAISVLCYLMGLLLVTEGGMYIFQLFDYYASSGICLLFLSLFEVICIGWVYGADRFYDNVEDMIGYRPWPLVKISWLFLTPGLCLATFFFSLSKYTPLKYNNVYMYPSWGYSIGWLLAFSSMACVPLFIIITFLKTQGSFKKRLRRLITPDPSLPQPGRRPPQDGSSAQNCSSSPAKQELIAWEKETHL
Described as above. The class given is cell-based. The protocol:
as §2

For data set [12], the system named is Wistar Albino rats. The class given is in vivo. Conditions: 20 mg/kg versus vigabatrin 200 mg/kg, 45 and 90 days. The protocol:
[…]. The formulations for each treatment group were prepared fresh weekly in 0.9% normal saline.
All animals were acclimated for 7 days to the test facility prior to the start of dosing and were housed in individual polycarbonate cages. The cage environment uses a standard 12 hr/12 hr light dark cycle, with standard industrial fluorescent lighting during the light cycle. During the course of the study, the animals were monitored for mortality, moribundity, clinical signs of illness, feed intake, and body weight change. Any animals found in distress for more than 24 hours were humanely euthanized. […]. […] At the conclusion of the dosing phase (5 of each sex for 45 days and 10 of each sex for 90 days), the animals entered a 5-7 day “washout” period, after which electroretinograms (ERGs) were measured for both eyes. The animals were then humanely euthanized, by CO2 asphyxiation in accordance with AVMA guidelines on euthanasia, for post-mortem pathology examinations. […]
The electroretinograms were measured with an Espion^2 ERG system with ColorDome Ganzfeld type illuminator by Diagnosys. […]

T1 sequence (Q9NSD5 whole entry): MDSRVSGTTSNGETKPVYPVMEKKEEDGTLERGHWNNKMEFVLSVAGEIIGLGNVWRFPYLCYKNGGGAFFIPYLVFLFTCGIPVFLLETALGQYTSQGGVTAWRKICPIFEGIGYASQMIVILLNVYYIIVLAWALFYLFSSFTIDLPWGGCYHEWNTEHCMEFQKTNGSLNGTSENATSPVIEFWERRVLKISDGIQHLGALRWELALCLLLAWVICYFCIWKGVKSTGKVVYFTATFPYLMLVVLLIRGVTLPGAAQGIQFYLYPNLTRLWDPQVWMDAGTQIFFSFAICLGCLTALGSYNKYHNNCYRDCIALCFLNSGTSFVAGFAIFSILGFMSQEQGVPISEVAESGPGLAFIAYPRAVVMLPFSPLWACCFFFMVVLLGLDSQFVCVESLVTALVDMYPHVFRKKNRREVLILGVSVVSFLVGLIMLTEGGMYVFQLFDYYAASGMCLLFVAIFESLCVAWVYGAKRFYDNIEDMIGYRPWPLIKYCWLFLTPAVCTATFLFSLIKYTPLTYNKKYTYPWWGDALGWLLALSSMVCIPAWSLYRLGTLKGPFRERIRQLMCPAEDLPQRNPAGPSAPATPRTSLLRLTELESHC
T3 sequence (P30531 whole entry): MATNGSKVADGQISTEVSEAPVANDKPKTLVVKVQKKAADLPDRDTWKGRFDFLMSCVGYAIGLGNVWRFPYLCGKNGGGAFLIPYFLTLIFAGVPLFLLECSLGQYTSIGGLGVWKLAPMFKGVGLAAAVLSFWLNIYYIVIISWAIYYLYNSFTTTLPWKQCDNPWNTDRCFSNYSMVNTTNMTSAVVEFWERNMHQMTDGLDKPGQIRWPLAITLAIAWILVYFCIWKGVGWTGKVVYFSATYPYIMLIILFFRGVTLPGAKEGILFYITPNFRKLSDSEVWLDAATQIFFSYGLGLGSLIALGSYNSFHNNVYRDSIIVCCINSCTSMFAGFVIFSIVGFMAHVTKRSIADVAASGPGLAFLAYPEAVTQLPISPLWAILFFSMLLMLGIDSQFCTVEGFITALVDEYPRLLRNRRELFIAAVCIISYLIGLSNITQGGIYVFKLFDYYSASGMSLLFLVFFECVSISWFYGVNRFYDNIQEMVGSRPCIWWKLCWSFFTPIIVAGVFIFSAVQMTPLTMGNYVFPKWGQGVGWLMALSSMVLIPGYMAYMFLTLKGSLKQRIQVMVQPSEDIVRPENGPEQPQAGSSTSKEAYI
Sequence of GABAB receptor (Q9Z0U4 17-960 limits assumed): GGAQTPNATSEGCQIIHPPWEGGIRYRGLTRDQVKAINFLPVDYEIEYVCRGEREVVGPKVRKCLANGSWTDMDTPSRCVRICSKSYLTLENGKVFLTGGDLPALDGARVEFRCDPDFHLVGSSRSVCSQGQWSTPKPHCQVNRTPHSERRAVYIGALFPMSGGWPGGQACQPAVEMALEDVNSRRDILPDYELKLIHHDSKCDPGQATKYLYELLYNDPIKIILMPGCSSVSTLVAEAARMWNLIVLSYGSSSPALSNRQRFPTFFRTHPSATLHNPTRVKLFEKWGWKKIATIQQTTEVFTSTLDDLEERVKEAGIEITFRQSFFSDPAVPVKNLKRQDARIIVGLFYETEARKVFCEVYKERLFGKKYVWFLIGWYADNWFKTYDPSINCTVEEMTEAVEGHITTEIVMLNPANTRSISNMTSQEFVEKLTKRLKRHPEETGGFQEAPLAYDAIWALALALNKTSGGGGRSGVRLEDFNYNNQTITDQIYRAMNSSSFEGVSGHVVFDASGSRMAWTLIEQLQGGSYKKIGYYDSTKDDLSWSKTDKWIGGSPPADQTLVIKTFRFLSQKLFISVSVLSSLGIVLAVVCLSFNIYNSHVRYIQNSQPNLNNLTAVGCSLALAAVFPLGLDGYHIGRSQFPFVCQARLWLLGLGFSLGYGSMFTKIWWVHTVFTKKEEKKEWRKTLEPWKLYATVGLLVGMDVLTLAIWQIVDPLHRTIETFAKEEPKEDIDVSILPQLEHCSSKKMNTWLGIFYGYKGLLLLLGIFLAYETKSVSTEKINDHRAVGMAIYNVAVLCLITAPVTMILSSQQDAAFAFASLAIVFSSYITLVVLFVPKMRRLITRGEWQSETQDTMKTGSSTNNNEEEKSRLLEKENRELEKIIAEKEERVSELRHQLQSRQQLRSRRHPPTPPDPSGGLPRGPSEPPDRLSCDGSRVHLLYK
Sequence of GABAB receptor (O88871 41-940 partner): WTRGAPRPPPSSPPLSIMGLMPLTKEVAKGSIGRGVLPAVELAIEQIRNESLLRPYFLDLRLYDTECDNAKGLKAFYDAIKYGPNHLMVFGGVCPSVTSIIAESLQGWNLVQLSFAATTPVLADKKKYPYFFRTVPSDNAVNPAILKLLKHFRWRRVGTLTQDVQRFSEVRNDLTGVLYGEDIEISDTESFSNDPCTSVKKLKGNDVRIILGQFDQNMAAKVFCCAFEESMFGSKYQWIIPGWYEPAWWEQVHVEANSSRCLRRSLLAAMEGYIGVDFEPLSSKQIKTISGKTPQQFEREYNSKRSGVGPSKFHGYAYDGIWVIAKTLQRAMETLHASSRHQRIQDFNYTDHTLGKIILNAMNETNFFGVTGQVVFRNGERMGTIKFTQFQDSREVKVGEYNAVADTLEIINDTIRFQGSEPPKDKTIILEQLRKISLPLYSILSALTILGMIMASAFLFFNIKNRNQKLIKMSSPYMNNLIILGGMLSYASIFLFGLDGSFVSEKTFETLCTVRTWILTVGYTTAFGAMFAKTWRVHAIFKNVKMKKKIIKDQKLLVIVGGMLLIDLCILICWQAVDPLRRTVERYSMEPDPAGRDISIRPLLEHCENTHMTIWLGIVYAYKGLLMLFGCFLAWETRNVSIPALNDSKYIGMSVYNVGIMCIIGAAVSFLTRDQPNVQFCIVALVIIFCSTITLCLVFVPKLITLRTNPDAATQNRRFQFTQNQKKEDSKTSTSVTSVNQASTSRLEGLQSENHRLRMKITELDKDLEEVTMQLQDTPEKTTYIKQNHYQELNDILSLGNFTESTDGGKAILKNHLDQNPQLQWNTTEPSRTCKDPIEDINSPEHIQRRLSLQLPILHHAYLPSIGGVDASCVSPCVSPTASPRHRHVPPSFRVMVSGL
T4 sequence (P48066 whole entry): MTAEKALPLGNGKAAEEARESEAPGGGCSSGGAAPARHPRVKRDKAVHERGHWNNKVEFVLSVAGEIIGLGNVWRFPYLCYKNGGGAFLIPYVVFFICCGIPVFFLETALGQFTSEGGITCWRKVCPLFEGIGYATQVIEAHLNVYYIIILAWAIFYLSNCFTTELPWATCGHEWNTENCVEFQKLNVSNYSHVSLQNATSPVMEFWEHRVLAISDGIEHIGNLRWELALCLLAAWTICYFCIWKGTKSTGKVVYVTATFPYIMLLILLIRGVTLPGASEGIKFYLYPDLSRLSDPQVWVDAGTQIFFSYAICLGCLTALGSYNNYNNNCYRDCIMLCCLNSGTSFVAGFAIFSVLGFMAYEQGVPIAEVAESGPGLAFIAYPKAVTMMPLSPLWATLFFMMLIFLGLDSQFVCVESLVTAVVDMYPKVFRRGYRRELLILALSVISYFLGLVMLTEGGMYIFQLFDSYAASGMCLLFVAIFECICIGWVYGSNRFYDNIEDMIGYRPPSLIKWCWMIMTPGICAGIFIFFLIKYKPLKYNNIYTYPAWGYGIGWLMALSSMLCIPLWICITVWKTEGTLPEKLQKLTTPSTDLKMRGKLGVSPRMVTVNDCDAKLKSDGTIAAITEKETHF

Consider `N[C@H]1C[C@@H](C(=O)O)CC1=C(F)F` [CPP-115], for which the negative-log IC50 (pIC50) in [1] is less than 3.00; in [2], less than 3.00; in [3], less than 3.00; in data set [4], less than 3.00; in [6] it was less than 3.00; in [7] it was less than 4.00. In addition, the negative logarithm of the IC50 (pIC50) in data set [8], in data set [9], in data set [10] and in [11] was less than 3.00 each time. The scMET protection entry in data set [5] is listed as “No protection”. Besides, in data set [12], the “visual field defects compared with vigabatrin” value is recorded as “less visual field defects than vigabatrin”.
